Series [1] is described as follows: Liver Microsome Stability Assay (mouse). The following applies: mouse liver microsomes, with NADPH, 1.0 uM compound.
Procedure: (§1) Stability of a compound was assessed in the presence of liver microsomes from various sources—mouse, rat, monkey and human liver microsomes. 1.0 uM compound, 0.4% DMSO in 0.1 M Potassium Phosphate with 1.0 mg/mL liver microsomes, were incubated at 37° C. with or without 1 mM NADPH. The samples were quenched at 0, and 30 minutes.
For series [2], the system named is IL-2-FL/Gaussia Luciferase. Put plainly: Dox Induced IL2-FL-Gluc Assay. It counts as cell-based. The following applies: for IC50: 24 hr Dox induction, 293FRT/TO cells, read-out: 24 hr Dox Inducible IL2FLGluc 293FRT/TO: Mean IC50; for 24 hr Dox Inducible IL2FLGluc 293FRT/TO: IL2/PD1: ratio of IL2FLGluc IC50 to PD1ssGluc IC50. Put shortly:
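A hygromycin- and blasticidin-resistant 293 T-REx clone carrying inducible IL-2–Gaussia luciferase (full-length IL-2, residues 1-153) serves as the cell system. After overnight plating, the cells get test compounds together with doxycycline in DMSO/media and are incubated at 37° C, 5% CO2.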

The subject of series [3] is PD1-ss+10aa/Gaussia Luciferase. Put plainly: Dox-Induced PD1-ss-Gluc Assay. It counts as cell-based. Particulars: 24 hr Dox induction, 293FRT/TO cells, read-out: 24 hr Dox Inducible PD1ssGluc 293FRT/TO: Mean IC50. In short, it runs like this: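 Flp-In 293 T-REx, stable line; Tet-regulated PD1-ss+10aa fused to Gaussia luciferase; plated day prior; cpd + doxycycline in DMSO/media; 37 °C, 5% CO2.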

In series [4] the test system is HER3-ss+4aa/Gaussia Luciferase. Put plainly: Dox-Induced Her3-ss-Gluc Assay. Particulars: 24 hr Dox induction, 293FRT/TO cells, read-out: 24 hr Dox Inducible Her3(ss + 4)Gluc 293FRT/TO: Mean IC50. It counts as cell-based. In short, it runs like this: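 Doxycycline-inducible HER3 signal sequence+4aa/Gaussia luciferase construct, stably integrated in Flp-In 293 T-REx cells; compound dilutions applied with doxycycline at 37° C., 5% CO2.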

The nature of series [5]: Liver Microsome Stability Assay (human). Particulars: human liver microsomes, with NADPH, 1.0 uM compound. For orientation: Liver microsomes are vesicles of endoplasmic reticulum, rich in cytochrome P450 enzymes.
Procedure: as §1
Series [6] deals with multiple myeloma cell line U266B1. Put plainly: U266 Cell Viability Assay. It counts as cell-based, human. The following applies: Homo sapiens, U-266, 48 h, U266B1 cells, Celltiter-Glo. In short, it runs like this:
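After growth in serum-supplemented RPMI 1640, cells received serially diluted compound in DMSO/media and were kept 48 hours before a CellTiter-Glo luminescence readout.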
In general terms: Cellular ATP, detected with luciferase, serves as a proxy for viable cell number.

Series [7] is described as follows: Liver Microsome Stability Assay (monkey). Particulars: monkey liver microsomes, with NADPH, 1.0 uM compound.
Procedure: as §1
Series [8] has as its system TNFα-FL/Gaussia Luciferase. Description: Dox Induced TNFα-FL-Gluc Assay. It is filed as cell-based. Particulars: for IC50: 24 hr Dox induction, 293FRT/TO cells, read-out: 24 hr Dox Inducible TNFaFLGluc 293FRT/TO: Mean IC50; for 24 hr Dox Inducible TNFaFLGluc 293FRT/TO: TNF/PD1: ratio of TNFaFLGluc IC50 to PD1ssGluc IC50. Put shortly:
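Hygromycin/blasticidin-selected Flp-In 293 T-REx cells, TNFα-FL/Gaussia luciferase fusion under T-REx control; overnight plating, then compound in DMSO/media with doxycycline at 37 °C, 5% CO2; stereo-undefined structures tested as mixtures.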

Series [9] is described as follows: Liver Microsome Stability Assay (rat). The following applies: rat liver microsomes, with NADPH, 1.0 uM compound.
Procedure: as §1
For series [10], the system named is multiple myeloma cell line NCI-H929. Put plainly: H929 Cell Viability Assay. It is filed as cell-based, human. Particulars: Homo sapiens, NCI-H929, 48 h, NCI-H929 cells, Celltiter-Glo. Put shortly: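 A 48-hour compound treatment of cells in 10% FBS RPMI medium was followed by luciferase-based viability quantification.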
Setting [11] is: '<=>' given where both are I.A.

Consider 7 molecules from patent US20230286973A1, “PROTEIN SECRETION INHIBITORS” (KEZAR LIFE SCIENCES, priority 2020, published 2023).

Where two headings read alike, the source gives them in different places. Some results are limits rather than exact numbers.

For `COCCCCn1cccc1C(=O)Nc1nc([C@H]2CCCN2c2ccccc2)cs1` [Compound C23, (R)-1-(4-methoxybutyl)-N-(4-(1-phenylpyrrolidin-2-yl)thiazol-2-yl)-1H-pyrrole-2-carboxamide], in series [1], the “Liver Microsome Stability (Multiple Species): Mouse - % Remaining after 30 min w/NADPH” value is 12.7%. The IC50 is 7.65 µM in series [2] (mean), 5.09 µM in series [3] (mean), 17.5 µM in series [4] (mean) and above 25 µM in series [8] (mean). Moreover, the “24 hr Dox Inducible IL2FLGluc 293FRT/TO: IL2/PD1” value in series [2] (setting [11]) is reported as 1.5. In series [5], the “Liver Microsome Stability (Multiple Species): Human - % Remaining after 30 min w/NADPH” value amounted to 15.8%. Besides, the EC50 is above 25 µM in [6] and 24.1 µM in series [10]. For the same molecule, the “Liver Microsome Stability (Multiple Species): Monkey - % Remaining after 30 min w/NADPH” value in series [7] is reported as 4.38%. Besides, in series [8] (setting [11]), the “24 hr Dox Inducible TNFaFLGluc 293FRT/TO: TNF/PD1” value was above 4.91. For the same molecule, in [9], the “Liver Microsome Stability (Multiple Species): Rat - % Remaining after 30 min w/NADPH” value is listed as 8.52%.

As for `O=C(Nc1nc(/C=C/c2ncco2)cs1)c1cccn1Cc1ccncc1` [Compound B34, (E)-N-(4-(2-(oxazol-2-yl)vinyl)thiazol-2-yl)-1-(pyridin-4-ylmethyl)-1H-pyrrole-2-carboxamide], in series [1], the “Liver Microsome Stability (Multiple Species): Mouse - % Remaining after 30 min w/NADPH” value is recorded as 0.97%. For the same molecule, the IC50 was above 25 µM in [2], 0.778 µM in [3], above 25 µM in [4] and above 25 µM in series [8]. The “24 hr Dox Inducible IL2FLGluc 293FRT/TO: IL2/PD1” value in [2] was above 32. Further, the “Liver Microsome Stability (Multiple Species): Human - % Remaining after 30 min w/NADPH” value in series [5] worked out at 0.75%. The EC50 in series [6] and in series [10] was above 25 µM throughout. The “Liver Microsome Stability (Multiple Species): Monkey - % Remaining after 30 min w/NADPH” value in series [7] amounted to 1.77%. Also, the “24 hr Dox Inducible TNFaFLGluc 293FRT/TO: TNF/PD1” value in series [8] was above 32.1. The “Liver Microsome Stability (Multiple Species): Rat - % Remaining after 30 min w/NADPH” value in series [9] is 0.87%.

`CN(C)C(=O)Nc1ccc(N2CCC[C@@H]2c2csc(NC(=O)c3cccn3Cc3ccnc(F)c3)n2)cc1` [Compound A124, (R)-N-(4-(1-(4-(3,3-dimethylureido)phenyl)pyrrolidin-2-yl)thiazol-2-yl)-1-((2-fluoropyridin-4-yl)methyl)-1H-pyrrole-2-carboxamide]: the “Liver Microsome Stability (Multiple Species): Mouse - % Remaining after 30 min w/NADPH” value in series [1] came out at 31.2%. Also, the IC50 in series [2] was found to be 0.0104 µM; in series [3] it was 0.00487 µM; in series [4], 0.00915 µM; in [8], 0.0758 µM. Further, in [2], the “24 hr Dox Inducible IL2FLGluc 293FRT/TO: IL2/PD1” value is listed as 2.1. The “Liver Microsome Stability (Multiple Species): Human - % Remaining after 30 min w/NADPH” value in series [5] was 53.1%. Moreover, the EC50 in [6] is above 25 µM; in series [10], 0.166 µM. In addition, in series [7], the “Liver Microsome Stability (Multiple Species): Monkey - % Remaining after 30 min w/NADPH” value is 27.8%. The “24 hr Dox Inducible TNFaFLGluc 293FRT/TO: TNF/PD1” value in series [8] stood at 15.6. Besides, the “Liver Microsome Stability (Multiple Species): Rat - % Remaining after 30 min w/NADPH” value in series [9] is given as 37.6%.

Turning to `CC(C)n1cnc(/C=C/c2csc(NC(=O)c3cccn3Cc3cc(F)nc(F)c3)n2)c1` [Compound B68, (E)-1-((2,6-difluoropyridin-4-yl)methyl)-N-(4-(2-(1-isopropyl-1H-imidazol-4-yl)vinyl)thiazol-2-yl)-1H-pyrrole-2-carboxamide], in series [1], the “Liver Microsome Stability (Multiple Species): Mouse - % Remaining after 30 min w/NADPH” value was determined as 14%. Further, the IC50 is above 25 µM in series [2], 0.348 µM in series [3], 18.2 µM in series [4] and above 25 µM in series [8]. Further, the “24 hr Dox Inducible IL2FLGluc 293FRT/TO: IL2/PD1” value in series [2] is above 72. For the same molecule, the “Liver Microsome Stability (Multiple Species): Human - % Remaining after 30 min w/NADPH” value in [5] is listed as 0.5%. For the same molecule, the concentration for a half-maximal effect (EC50) in [6] came to 14.6 µM; in [10], 10.1 µM. In addition, the “Liver Microsome Stability (Multiple Species): Monkey - % Remaining after 30 min w/NADPH” value in series [7] is recorded as 0.07%. Further, the “24 hr Dox Inducible TNFaFLGluc 293FRT/TO: TNF/PD1” value in series [8] is on record as above 71.9. The “Liver Microsome Stability (Multiple Species): Rat - % Remaining after 30 min w/NADPH” value in [9] worked out at 19.9%.

As for `CC(C)n1cnc(/C=C/c2csc(NC(=O)c3cccn3Cc3ccnc(F)c3)n2)c1` [Compound B45, (E)-1-((2-fluoropyridin-4-yl)methyl)-N-(4-(2-(1-isopropyl-1H-imidazol-4-yl)vinyl)thiazol-2-yl)-1H-pyrrole-2-carboxamide], the “Liver Microsome Stability (Multiple Species): Mouse - % Remaining after 30 min w/NADPH” value in [1] is recorded as 23.2%. Further, the IC50 in [2] was above 22.6 µM; in series [3], 0.0421 µM; in series [4], above 25 µM; in [8] it was above 25 µM. Also, the “24 hr Dox Inducible IL2FLGluc 293FRT/TO: IL2/PD1” value in series [2] is given as above 540. Besides, the “Liver Microsome Stability (Multiple Species): Human - % Remaining after 30 min w/NADPH” value in series [5] stood at 0.1%. The figures for the EC50 in [6] and in [10] were above 24.2 µM and 19.9 µM, respectively. Also, the “Liver Microsome Stability (Multiple Species): Monkey - % Remaining after 30 min w/NADPH” value in series [7] turned out to be 0.19%. For the same molecule, the “24 hr Dox Inducible TNFaFLGluc 293FRT/TO: TNF/PD1” value in series [8] is recorded as above 593. Besides, in series [9], the “Liver Microsome Stability (Multiple Species): Rat - % Remaining after 30 min w/NADPH” value came out at 16.3%.

For the molecule `CC(=O)N(C)CCOc1ccc(N2CCC[C@@H]2c2csc(NC(=O)c3cccn3Cc3ccnc(F)c3)n2)cc1` [Compound A117, (R)-1-((2-fluoropyridin-4-yl)methyl)-N-(4-(1-(4-(2-(N-methylacetamido)ethoxy)phenyl)pyrrolidin-2-yl)thiazol-2-yl)-1H-pyrrole-2-carboxamide], in [1], the “Liver Microsome Stability (Multiple Species): Mouse - % Remaining after 30 min w/NADPH” value turned out to be 0.81%. In addition, the IC50 in series [2] worked out at 0.051 µM; in series [3], 0.0282 µM; in [4], 0.0334 µM; in series [8], 0.301 µM. Besides, the “24 hr Dox Inducible IL2FLGluc 293FRT/TO: IL2/PD1” value in [2] came to 1.8. The “Liver Microsome Stability (Multiple Species): Human - % Remaining after 30 min w/NADPH” value in series [5] is on record as 2.64%. In addition, the EC50 in [6] was above 25 µM; in series [10] it was 0.938 µM. Moreover, the “Liver Microsome Stability (Multiple Species): Monkey - % Remaining after 30 min w/NADPH” value in series [7] is 0.09%. Moreover, in series [8], the “24 hr Dox Inducible TNFaFLGluc 293FRT/TO: TNF/PD1” value came out at 10.7. The “Liver Microsome Stability (Multiple Species): Rat - % Remaining after 30 min w/NADPH” value in [9] is given as 8.86%.

In the case of `CN(C)C(=O)N1CC(Oc2ccc(N3CCC[C@@H]3c3csc(NC(=O)c4cccn4Cc4ccnc(F)c4)n3)cc2)C1` [Compound A131, (R)-N-(4-(1-(4-((1-(dimethylcarbamoyl)azetidin-3-yl)oxy)phenyl)pyrrolidin-2-yl)thiazol-2-yl)-1-((2-fluoropyridin-4-yl)methyl)-1H-pyrrole-2-carboxamide], the “Liver Microsome Stability (Multiple Species): Mouse - % Remaining after 30 min w/NADPH” value in series [1] worked out at 20.4%. In addition, the IC50 in series [2] was found to be 0.0647 µM; in series [3], 0.0309 µM; in series [4], 0.0481 µM; in series [8], 0.508 µM. Moreover, the “24 hr Dox Inducible IL2FLGluc 293FRT/TO: IL2/PD1” value in series [2] is recorded as 2.1. In addition, in [5], the “Liver Microsome Stability (Multiple Species): Human - % Remaining after 30 min w/NADPH” value came to 11.8%. Further, the figures for the EC50 in [6] and in series [10] were above 25 µM and 1.11 µM, respectively. Moreover, the “Liver Microsome Stability (Multiple Species): Monkey - % Remaining after 30 min w/NADPH” value in series [7] is recorded as 6.3%. Further, the “24 hr Dox Inducible TNFaFLGluc 293FRT/TO: TNF/PD1” value in series [8] is reported as 16.4. In addition, the “Liver Microsome Stability (Multiple Species): Rat - % Remaining after 30 min w/NADPH” value in [9] stood at 42.9%.

As usually defined, the EC50 is the midpoint of the concentration-response curve.
